Where “and” joins values, the source holds several entries; their conditions need not be identical. Equal values may be shown once. Entries after “also recorded” stand apart in the source; their conditions may differ. Read-outs that look alike come from different tables or passages of the source.
What was measured:
[1] = Cell growth / viability of MT-4 cells (cytotoxicity); type: cell-based; settings: human, day 5, read-out: CC0 (concentration that reduces viability of MT-4 cells; minimum cytotoxic concentration)
Description: (§1) In the experiments, MT-4 cells were used. The cells were incubated at 37° C. under 5% CO2 in RPMI-1640 medium (FCS, Flow laboratories, North Ryde, Australia) supplemented with 100 μg/mL of streptomycin (Meiji Seika, Tokyo, Japan), and 100 U/mL of penicillin G (Banyu Pharmaceutical, Tokyo, Japan).
(§2) The inhibitory effect of test compounds on HIV-1-induced cytopathogenicity was measured by the method of Harada, Koyanagi & Yamamoto (1985). MT-4 cells were infected for 1 hour with HIV-1 (at TCID50 of 0.001/well) and non-adsorbed virus was removed by washing. Then, the cells were resuspended in RPMI-1640 medium at a concentration of 1.5×10^5 cells/mL. A 200 μL/well of the cell suspension was cultured for 5 days in days in a 96-well culture plate containing various concentrations (12 doses, maximum 1,000 μg/mL and minimum […]) of the test compounds. Control assays were performed in the absence of test compounds with HIV-1-infected and uninfected cultures. On day 5, the IC100 of the test compound required for completely preventing HIV-1-induced CPE(IC) was determined through an optical microscope and the cell growth was examined to give the CC0 that reduces the viability of MT-4 cells.

[2] = test system: protein kinase C (PKC); type: biochemical, mouse; settings: for % Activity of PKC: relative to TPA positive control; for PKC activation, positive control: TPA, lipid and calcium chloride present; for activation of PKC (in words): concentration not given
Description: After addition of 0.55 nM [γ-^32 P] ATP (50×10^3 cpm/nmol), the reaction mixture was mixed and allowed to be kept at 37° C. for 30 minutes. Then the reactions were terminated by the addition of 10 μl of ice-cold stop reagent. Aliquots of 35 μL were transferred to the center of peptide binding discs. After 10 minutes, the discs were washed two times with 75 mM orthophosphoric acid. The activity of ^32 P-labeled samples was counted in 10/mL of a scintillation fluid for 1 minute. […] Blank (in the absence of PKC) and control (in the absence of TPA or tested samples) were also carried out. One unit of PKC was defined as that amount of enzyme, which incorporated 1 nmol of phosphate from ATP into its substrate, peptide, per minute under the assay conditions, described above.

[3] = test system: HIV-1; assay: Inhibition of HIV-1-induced cytopathic effect (CPE) in MT-4 cells; type: cell-based, HIV-1 (LAV-1) in human MT-4 cells; settings: for IC100: Human immunodeficiency virus 1, MT4, 120 h; for r = CC0/IC100: 7200 min; for CPE inhibitory effect (in words): HIV-1; for anti-HIV-1 activity: at concentrations up to 500 μg/mL
Description: as §1
HIV-1 was obtained from culture supernatant of MOLT-4 cells that had been persistently infected with LAV-1.
j) Assay of cytopathic effect(CPE) of HIV-1 in MT-4 cells
as §2
A variety of phorbol esters and related compounds were tested for their ability to inhibit the replication and infectivity of HIV-1 in MT-4 cells, a human CD4-positive cell line continually infected with HTLV-1, and the results are presented in Table 3.

[4] = MT-4 cells, 5 days, NE: Not effective, read-out: Anti-HIV-1 IC100 (complete prevention of HIV-1-induced CPE)
[5] = MT-4 cells, read-out: IC100 (complete inhibition of CPE)
[6] = 10 ng/mL (standard concentration)
[7] = MT-4 cells, 5 days, NE: Not effective

SMILES	MCC at 120 h [1]	% Activity of PKC ([2]; 10 ng/mL)	PKC activation (in words) ([2]; 100 ng/mL)	% Activity of PKC ([2]; 2.7 μg/mL)	PKC activation (in words) ([2]; 10 to 100 ng/mL)	IC100 [3, 4]	IC100 [3, 5]	r = CC0/IC100 ([3]; MT-4 cells)	PKC activation, positive control [2]	PKC activation, positive control ([2]; represents 100%)	CPE inhibitory effect (in words) ([3]; MT-4 cells)	activation of PKC (in words) [2]	anti-HIV-1 activity [3]	PKC activation (in words) [2, 6]	Anti-HIV-1 IC100 (complete prevention of HIV-1-induced CPE) [3, 7]	IC100 ([3]; read-out: Anti-HIV-1 IC100 (complete prevention of HIV-1-induced CPE))	PKC activation (in words) ([2]; 10 ng to 2.7 μg/mL)	enhancement of CPE inhibitory activity ([3]; relative to compound 1)
CCCCCCCCCC(=O)O[C@@]12[C@H](OC(C)=O)[C@@H](C)[C@@]3(O)[C@@H](C=C(CO)C[C@]4(O)C(=O)C(C)=C[C@@H]34)[C@@H]1C2(C)C [Compound 6, 12-O-Acetylphorbol-13-decanoate]	62.5 µg/mL	0%	No activation of PKC was observed	17%	no activation; also recorded: did not activate PKC	0.0076 µg/mL	0.0076 µg/mL	8220	–	–	–	–	–	–	–	–	–	–
CCCCCCCCCCCC(=O)O[C@@]12[C@H](OC(=O)C(C)CC)[C@@H](C)[C@@]3(O)[C@@H](C=C(CO)C[C@]4(O)C(=O)C(C)=C[C@@H]34)[C@@H]1C2(C)C (some centres unmarked) [Compound 7, 12-O-(2-Methylbutyroyl)phorbol-13-dodecanoate]	62.5 µg/mL	16%	–	30%	–	15.6 µg/mL	–	4.01	–	–	–	–	–	–	–	–	–	–
CCCCCCCCCCCCCC(=O)O[C@@H]1[C@@H](C)[C@@]2(O)[C@@H](C=C(CO)C[C@]3(O)C(=O)C(C)=C[C@@H]23)[C@@H]2C(C)(C)[C@]12OC(C)=O [Compound 8, reference compound]	31.3 µg/mL	96% and ~100%	–	98% and ~100%	–	0.00048 µg/mL	0.00048 µg/mL	65200	100%	8400 nmol/mg/min	equipotent	–	–	–	–	–	–	–
CC1=C[C@H]2[C@@]3(O)[C@H](C)[C@@H](O)[C@]4(O)[C@H]([C@@H]3C=C(CO)C[C@]2(O)C1=O)C4(C)C [Compound 9, Phorbol]	1000 µg/mL	8%	–	39%	–	–	–	–	–	–	did not show CPE inhibitory effect; also recorded: showed no effect	weak activators of PKC	did not show anti-HIV-1 activity	–	–	–	–	–
CC(=O)O[C@@]12[C@H](O)[C@@H](C)[C@@]3(O)[C@@H](C=C(CO)C[C@]4(O)C(=O)C(C)=C[C@@H]34)[C@@H]1C2(C)C [Compound 10, 13-O-Acetylphorbol]	> 1000 µg/mL	0%	–	14%	–	125 µg/mL	–	> 8.00	–	–	–	–	–	did not activate PKC	–	–	–	–
CC(=O)OCC1=C[C@H]2[C@@H]3C(C)(C)[C@]3(OC(C)=O)[C@H](OC(C)=O)[C@@H](C)[C@]2(O)[C@@H]2C=C(C)C(=O)[C@@]2(O)C1 [Compound 11, Phorbol-12,13,20-triacetate]	125 µg/mL	0%	–	15%	–	62.5 µg/mL	–	2.00	–	–	–	–	–	did not activate PKC	–	–	–	–
CC1=C[C@H]2[C@@]3(O)[C@H](C)[C@@H](OC(=O)c4ccccc4)[C@]4(OC(=O)c5ccccc5)[C@H]([C@@H]3C=C(COC(=O)c3ccccc3)C[C@]2(O)C1=O)C4(C)C [Compound 12, Phorbol-12,13,20-tribenzoate]	31.3 µg/mL	–	–	100%	–	–	–	–	–	–	showed no effect	enhanced the activation of PKC	did not show anti-HIV-1 activity	–	–	–	–	–
CCCCC/C=C\C/C=C\CCCCCCCC(=O)OCC1=C[C@H]2[C@@H]3C(C)(C)[C@]3(OC(C)=O)[C@H](OC(C)=O)[C@@H](C)[C@]2(O)[C@@H]2C=C(C)C(=O)[C@@]2(O)C1 [Compound 13, Phorbol-12,13-diacetate-20-linoleate]	62.5 µg/mL	0%	–	44%	–	7.81 µg/mL	–	8.00	–	–	Enhancement of the anti-HIV activity	without an increase in the activity of PKC	–	–	7.8 µg/mL	–	–	–
CCCCCCCCCCCCCC(=O)O[C@@H]1[C@@H](C)[C@@]2(O)[C@@H](C=C(COC(C)=O)C[C@]3(O)C(=O)C(C)=C[C@@H]23)[C@@H]2C(C)(C)[C@]12OC(C)=O [Compound 14, 12-O-Tetradecanoylphorbol-13,20-diacetate]	62.5 µg/mL	0%	–	30%	–	15.6 µg/mL	–	4.01	–	–	dramatically decreased	dramatically decreased	–	–	–	–	–	–
CC(=O)OCC1=C[C@H]2[C@@H]3C(C)(C)[C@]3(OC(C)=O)[C@H](OC(C)=O)[C@@H](C)[C@]2(O)[C@@H]2C=C(C)[C@H](O)[C@@]2(O)C1 [Compound 15, 3-Deoxo-3β-hydroxyphorbol-12,13,20-triacetate]	1000 µg/mL	0%	–	26%	–	–	–	2.00	–	–	loss of CPE inhibitory effect	–	–	–	–	500 µg/mL	–	–
CO[C@]12CC(COC(C)=O)=C[C@H]3[C@@H]4C(C)(C)[C@]4(OC(C)=O)[C@H](OC(C)=O)[C@@H](C)[C@]3(O)[C@@H]1C=C(C)C2=O [Compound 16, 4-O-Methylphorbol-12,13,20-triacetate]	125 µg/mL	0%	–	0%	–	31.3 µg/mL	–	3.99	–	–	increased in the CPE inhibitory effect	no activation of PKC	–	–	–	–	no activation	–
CC(=O)OCC1=C[C@H]2[C@@H]3C(C)(C)[C@]3(OC(C)=O)[C@H](OC(C)=O)[C@@H](C)[C@]2(OC(C)=O)[C@@H]2C=C(C)C(=O)[C@@]2(OC(C)=O)C1 [Compound 17, Phorbol-4,9,12,13,20-pentaacetate]	250 µg/mL	0%	–	–	–	125 µg/mL	–	2.00	–	–	–	–	–	did not activate PKC	–	–	–	–
C=C(C)C1C(OC(C)=O)=CC(C)C2(O)C1C=C(COC(=O)CCCCCCC/C=C\C/C=C\CCCCC)CC1(O)C(=O)C(C)=CC12 (centres unmarked) [Compound 18, 13-O-Acetylcrotophorbolone-enol-20-linoleate]	125 µg/mL	24%	–	24%	–	7.81 µg/mL	–	16.0	–	–	–	–	–	–	7.8 µg/mL	–	–	2 times
